We go through 3 compounds from US20210008161A1, “METHODS AND COMPOSITIONS FOR IMPROVED HOMOLOGY DIRECTED REPAIR” (CRISPR THERAPEUTICS AG, priority 2019, published 2021).

The structures appear in SMILES notation.

One experiment deals with HEK293 T cells. The experiment in a line: BFP to GFP fluorescent reporter assay of HDR efficiency (AAVS1 locus). The class given is cell-based, human. Particulars: different concentrations/doses, FIG. 1B, 1C. As for the experimental part:
An in vitro assay was conducted to determine the ability of various inhibitors and enhancers to improve the efficiency of HDR repair in HEK293 T cells. Specifically, a fluorescent reporter-based screening approach was developed to identify molecules that enhance gene-editing by HDR. A reporter system was generated in HEK293 T cells comprising a genomic AAVS1 locus that encoded either a blue fluorescent protein (BFP) or a green fluorescent protein (GFP) within the AAVS1 locus. A gene encoding BFP can be converted to a gene encoding GFP by substitution of cytosine at position 199 to uridine (e.g., a C to U transition at position 199). By introducing a DSB within the BFP gene using a CRISPR/Cas9 gene-editing system, a homology donor DNA encoding the nucleotide substitution can be used to edit the BFP gene to a GFP gene by HDR repair. Thus, a gene edit that induces a C to U transition at position 199 results in a change in cellular fluorescence. A change in the fluorescence of the cell measured by flow cytometry can be used to quantify efficiency of HDR repair. Additionally, the reverse gene edit can be performed for an AAVS1 locus encoding a GFP gene, wherein a GFP can be converted to BFP by substitution of uridine at position 199 to cytosine.
To create the reporter system, an AAV-based homology donor DNA encoding either BFP or GFP was created. The AAV-BFP or AAV-GFP donor was flanked by homology arms that were 1000 base pairs in length and expression of BFP or GFP was driven by the MND promoter (e.g., a synthetic promoter that contains the U3 region of a modified Moloney murine leukemia virus long term terminal repeat with myeloproliferative sarcoma virus enhancer and deleted negative control region, SEQ ID NO: 58). The viral DNA was packaged into capsids of adeno-associated virus serotype 6 (AAV6) vector. Either the BFP or GFP donor was introduced using the AAV6 vector into the AAVS1 locus in HEK293 T cells by homologous recombination using CRISPR-Cas9 as follows: purified Cas9 protein was complexed with two different single gRNAs (sgRNAs) targeting the AAVS1 locus at SEQ ID NO: 3 (spacer sequence identified by SEQ ID NO: 4; gRNA obtained from Maxcyte) or SEQ ID NO: 5 (spacer sequence identified by SEQ ID NO: 6; gRNA obtained from Thermo Fisher). Cas9 protein used in the Exemplary section provided herein refers to Cas9 polypeptide derived from S. pyogenes (SpCas9), unless indicated otherwise.
The Cas9-sgRNA complex was electroporated into the HEK293 T cells using the Lonza Nucleofector program CM-130. Approximately, 2 hours after electroporation, the cells were infected with various viral doses of AAV6 encoding a BFP (SEQ ID NO: 44) or GFP homology donor (SEQ ID NO: 47). One week later, cells were analyzed by flow cytometry to verify integration and expression of BFP or GFP in the AAVS1 locus. HEK293 T cells expressing BFP or GFP were sorted into single cells in 96-well plates. After ˜2 weeks of growth, DNA extracted from individual cells was analyzed for precise integration of the respective BFP or GFP gene into the AAVS1 locus by long-range PCR. This PCR analysis allowed for determination of whether the BFP/GFP gene was integrated in one or both alleles of the AAVS1 locus.
To introduce a gene edit that converts BFP to GFP, cells were electroporated with ribonucleoprotein (RNP) comprised of Cas9 and sgRNA that targets the BFP gene encoded in the AAVS1 locus. The sgRNA targeted a sequence in the BFP gene identified by SEQ ID NO: 7 (sgRNA spacer sequence identified by SEQ ID NO: 8). The sgRNA were prepared using a standard sgRNA cassette specific to SpCas9, as indicated by SEQ ID NO: 2 (wherein a, c, g, u represent 2′ O-methyl phosphorothioate nucleotides; s represents phosphorothioate nucleotides; and A, C, G, U, N represent canonical RNA nucleotides). The gRNAs used in the Exemplary section provided herein were sgRNAs prepared with the SpCas9 sgRNA cassette unless indicated otherwise. […]

A further experiment relates to CD34-expressing LT-HSPCs. The experiment in a line: HDR insertion of AAV-delivered GFP donor into HBB locus (GFP fluorescence). Particulars: HBB locus in LT-HSPCs; any dose tested; data not shown. The class given is cell-based, human. As for the experimental part:
Frozen CD34-expressing LT-HSPCs derived from plerixafor (i.e., Mozibil®)+GCSF-dual mobilized peripheral blood obtained from healthy human donors were purchased from a commercial vendor. LT-HSPCs were maintained in culture media comprised of the reagents shown in Table 4 and were incubated at 37° C., 5% carbon dioxide, 4% oxygen. […] 2×10^5 cells were edited with 3 μg Cas9 and 3 μg gRNA. The target gene sequence (including target sequence with PAM), R02 spacer sequence, and R02 sgRNA sequence are identified in Table 3.
The cells were transfected with a dsDNA homology donor encoding GFP under a SFFV promoter (SEQ ID NO: 60) that was delivered by AAV (SEQ ID NO: 56). […] The HDR efficiency was determined by measuring the level of GFP fluorescence in the cells following electroporation. To determine the effect of 53BP1 inhibition on HDR efficiency, the 53BP1 inhibitor i53 was introduced as an mRNA-encoded protein to the cells during electroporation with Cas9/gRNA RNP and AAV DNA that serves as a donor for homology directed repair.
The effect of 53BP1 inhibition on HDR efficiency was compared to other mRNA-encoded proteins that inhibit the NHEJ pathway. These included the proteins CYREN1 and CYREN2 that inhibit Ku70/80, a heterodimer that binds DNA blunt ends to prevent processing of 3′ single-stranded DNA tails necessary for HDR repair. Cells were electroporated with RNP, an AAV-GFP homology donor and mRNA encoding either i53 (mRNA ORF shown in SEQ ID NO: 69), CYREN1, or CYREN2.
The effect of treatment with i53 and Nu7441 was compared for improving efficiency of HDR repair of the HBB locus. Cells were treated with different doses of Nu7441 or with mRNA encoding i53 (ORF shown by SEQ ID NO: 69).

With `CCCCCCNC(=O)Nc1ccc(S(=O)(=O)Nc2ccc(CCNC[C@H](O)COc3ccc(O)cc3)cc2)cc1` [L755,507], the HDR efficiency entry in the experiment on HEK293 T cells is listed as “no improvement”. For `C[C@]1(c2nc3c(C(N)=O)cccc3[nH]2)CCCN1` [Veliparib], in the experiment with HEK293 T cells, the HDR efficiency entry is listed as “no improvement”.

On to `Cl.O=c1[nH]c([C@@H]2CCCN2)nc2c1oc1ccc(Cl)cc12` [XL 413, reference compound], for which, in the experiment on CD34-expressing LT-HSPCs, the HDR efficiency result is reported as “no improvement”.
